The IC50 is the midpoint of a concentration-inhibition curve. Lower therefore signals higher potency.

The target of this test is T1, Na+/H+ exchange transport system (Rattus norvegicus, UniProt P26431).
T1 construct: a pH change in isolated ventricular myocytes (rat) under an acid load; from tissue; host or cells: isolated rat ventricular myocytes
T1 sequence (P26431 whole entry): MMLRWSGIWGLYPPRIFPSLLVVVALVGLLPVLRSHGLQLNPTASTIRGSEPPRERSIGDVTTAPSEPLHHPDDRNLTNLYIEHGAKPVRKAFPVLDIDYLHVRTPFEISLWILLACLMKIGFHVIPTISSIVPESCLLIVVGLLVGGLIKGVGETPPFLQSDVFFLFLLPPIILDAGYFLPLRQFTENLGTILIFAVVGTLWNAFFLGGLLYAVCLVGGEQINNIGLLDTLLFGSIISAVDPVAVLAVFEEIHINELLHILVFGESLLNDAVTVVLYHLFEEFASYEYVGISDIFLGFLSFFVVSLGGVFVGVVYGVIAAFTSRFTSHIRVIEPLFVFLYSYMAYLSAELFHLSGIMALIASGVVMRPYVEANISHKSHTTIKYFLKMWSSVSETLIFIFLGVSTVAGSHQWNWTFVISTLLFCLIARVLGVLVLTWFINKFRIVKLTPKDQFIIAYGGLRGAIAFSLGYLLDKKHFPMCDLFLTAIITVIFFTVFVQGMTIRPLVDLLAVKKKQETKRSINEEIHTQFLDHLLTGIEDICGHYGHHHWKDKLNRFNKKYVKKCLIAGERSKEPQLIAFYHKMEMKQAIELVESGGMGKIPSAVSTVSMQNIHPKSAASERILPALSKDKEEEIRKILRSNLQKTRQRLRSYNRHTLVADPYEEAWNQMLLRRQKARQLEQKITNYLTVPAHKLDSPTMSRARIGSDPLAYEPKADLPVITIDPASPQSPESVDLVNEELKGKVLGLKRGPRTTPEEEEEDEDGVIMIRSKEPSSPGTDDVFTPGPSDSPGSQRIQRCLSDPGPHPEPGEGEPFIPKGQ
As to the kind of experiment: Inhibitory effect on the Na+/H+ exchange transport system (in vitro), pH change in isolated ventricular myocytes under an acid load. The class given is cell-based. As for the experimental part: Inhibitory Effect on the Na^+/H^+ Exchange Transport System (In Vitro)
A test was carried out according to the method of Iemori et al. (J. Hypertension, 8, 153(1990)). In detail, inhibitory effect on the Na^+/H^+ exchange transport system was evaluated by using as an indication a pH change in isolated ventricular myocytes (rat) under an acid load.
For “N-(aminoiminomethyl)-1-(4-methylphenylsulfonyl)-2,3-dihydro-1H-benz[b]azepine-4-carboxamide Methanesulfonate [Example 4]”, the IC50 came to 3300 nM. “N-(aminoiminomethyl)-5-methyl-6,7-dihydro-5H-benzocycloheptene-8-carboxamide Methanesulfonate [Example 7]” showed an IC50 of 50 nM. Compared with the last compound, the IC50 is about 66-fold lower. With “N-(aminoiminomethyl)-4,9-dimethyl-6,7-dihydro-5H-benzocycloheptene-8-carboxamide Methanesulfonate [Example 9]”, the concentration for half-maximal inhibition (IC50) amounted to 2300 nM.

“N-(aminoiminomethyl)-2,3-dihydro-1H-benz[b]azepine-4-carboxamide dimethane-sulfonate [Example 5]”: the half-inhibitory concentration (IC50) amounted to 150 nM. “N-(aminoiminomethyl)-2-methylthio-6,7-dihydro-5H-benzocycloheptene-8-carboxamide Methanesulfonate [Example 12]” gave a concentration for half-maximal inhibition (IC50) of 460 nM. `CC1CC(C(=O)NC(=N)N)=Cc2ccccc2C1` (stereo not drawn) [Example 11, N-(aminoiminomethyl)-6-methyl-6.7-dihydro-5H-benzocycloheptene-8-carboxamide Methanesulfonate]: the half-maximal inhibitory concentration (IC50) stood at 210 nM. To “N-(aminoiminomethyl)-9-methyl-6,7-dihydro-5H-benzocycloheptene-8-carboxamide Methanesulfonate [Example 8]” belongs 7100 nM; to “N-(aminoiminomethyl)-4-methylthio-6,7-dihydro-5H-benzocycloheptene-8-carboxamide Methanesulfonate [Example 14]”, 30 nM. The figure for “N-(aminoiminomethyl)-4-methylsulfonyl-6,7-dihydro-5H-benzocycloheptene-8-carboxamide Methanesulfonate [Example 15]” is 30 nM; for “N-(aminoiminomethyl)-3,4-dihydronaphthalene-2-carboxamide Methanesulfonate [Example 1]” it is 300 nM. To “N-(aminoiminomethyl)-2,3-dihydro-benz[b]oxepine-4-carboxamide Methanesulfonate [Example 6]” belongs 70 nM; to “N-(aminoiminomethyl)-7-methyl-6,7-dihydro-5H-benzocycloheptene-8-carboxamide Methanesulfonate [Example 10]”, 10 nM. In turn, “N-(aminoiminomethyl)-5-methoxy-3,4-dihydronaphthalene-2-carboxamide Methanesulfonate [Example 2]” registered an IC50 of 100 nM.

“N-(aminoiminomethyl )-6,7-dihydro-5H-benzocycloheptene-8-carboxamide Methanesulfonate [Example 3]”: the IC50 worked out at 50 nM. In turn, “N-(aminoiminomethyl)-2-methylsulfonyl-6,7-dihydro-5H-benzocycloheptene-8-carboxamide Methanesulfonate [Example 13]” came in with a concentration for half-maximal inhibition (IC50) of more than 10000 nM.
